Marks after values point to notes of the source that are not given here.
Legend:
Type in all cases: in vivo
Details in all cases: 100 = 100% disease control
[1] = tested on: Puccinia recondita f. sp. tritici; test: Test I: wheat leaf rust on wheat seedlings, sprayed the day before inoculation, visual disease rating
Outline: (§1)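 Compounds were dissolved in acetone (3% of final volume), then suspended in 50/50 acetone/purified water with 250 ppm Trem® 014 surfactant. Suspensions at 200 ppm (some at 40 ppm) were sprayed to run-off, 200 ppm being equivalent to 500 g/ha.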

Septoria nodorum = test: Test F: wheat glume blotch on wheat seedlings, sprayed the day before inoculation, visual disease rating
Outline: as §1

[2] = tested on: Puccinia recondita f. sp. tritici; test: Test H: wheat leaf rust, test suspension sprayed after inoculation of wheat seedlings, visual disease rating
Outline: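 Wheat seedlings inoculated with P. recondita spores, held 24 h saturated at 20 °C, then 2 days in growth chamber at 20 °C; compound suspension (acetone/water with Trem 014) sprayed to run-off afterwards. Rated visually; 200 ppm (≈500 g/ha) unless marked *, which denotes 40 ppm.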

Botrytis cinerea = test: Test C: tomato Botrytis on tomato seedlings, sprayed the day before inoculation, visual disease rating
Outline: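 Compounds were dissolved in acetone (3% of final volume), then suspended in 50/50 acetone/purified water containing 250 ppm polyhydric alcohol ester surfactant. Suspensions were sprayed to run-off on tomato seedlings at 200 ppm, equivalent to 500 g/ha, or at 40 ppm where marked.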

[3] = tested on: Erysiphe graminis f. sp. tritici; test: Test J: wheat powdery mildew on wheat seedlings, sprayed the day before inoculation, visual disease rating
Outline: as §1

Alternaria solani = test: Test D: tomato early blight, sprayed the day before inoculation, visual disease rating
Outline: as §1

Septoria tritici = test: Test G: wheat leaf blotch on wheat seedlings, sprayed the day before inoculation, visual disease rating
Outline: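 Visual disease ratings taken 19 days after transfer to a 20° C growth chamber, following 48 h in saturated atmosphere at 24° C. Seedlings had been sprayed to run-off one day before spore inoculation. Dose 200 ppm, or 40 ppm where starred.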

[4] = 200 ppm, 0 = no control relative to controls
[5] = 40 ppm (marked *), 0 = no control

SMILES	Test I disease control rating [1, 4] [%]	Test F disease control rating (Septoria nodorum; [4]) [%]	Test H disease control rating [2, 4] [%]	Test C disease control rating (Botrytis cinerea; [4]) [%]	Test J disease control rating [3, 4] [%]	Test D disease control rating (Alternaria solani; [4]) [%]	Test G disease control rating (Septoria tritici; [4]) [%]	also measured
COc1cc(F)c(-c2c(Cl)ncn2-c2ccccc2)c(F)c1 [compound 420]	100	99	0	100	100	100	100	
Cc1nc(Cl)c(-c2ccc(Cl)c(F)c2)n1-c1ccc(F)cc1Cl [compound 421]	100	0	0	100	100	98	100	
Cc1nc(Cl)c(-c2ccc(Cl)cc2)n1-c1ccc(F)cc1Cl [compound 422]	99	60	0	100	100	100	100	
COc1cc(F)c(-n2c(C)nc(Cl)c2-c2ccc(Cl)cc2)c(F)c1 [compound 423]								Test I disease control rating [1, 5]: 91* %; Test F disease control rating (Septoria nodorum; [5]): 69* %; Test H disease control rating [2, 5]: 0* %; Test C disease control rating (Botrytis cinerea; [5]): 100* %; Test J disease control rating [3, 5]: 99* %; Test D disease control rating (Alternaria solani; [5]): 0* %; Test G disease control rating (Septoria tritici; [5]): 94* %
COc1cc(F)c(-c2c(Br)nn(C)c2-c2ccc(Cl)cc2)c(F)c1 [compound 424]	94	99	0	100	100	100	100	
COc1ccc(F)c(-c2c(Cl)nc(C)n2-c2ccc(Cl)c(C)c2)c1F [compound 425]	96	100	0	100	100	100	100	
COc1ccc(F)c(-c2c(Cl)nc(C)n2-c2cccc(OC(F)F)c2)c1F [compound 426]	100	100	27	100	100	100	100	
CCc1cccc(-n2c(Cl)nc(Cl)c2-c2c(F)ccc(OC)c2F)c1 [compound 427]	93	99	0	100	100	100	100	
COc1cc(F)c(-c2c(Cl)nc(Cl)n2-c2ccccc2)c(F)c1Cl [compound 428]	100	0	0	100	100	100	99	
COc1cc(F)c(-c2c(Cl)nc(Br)n2-c2ccccc2)c(F)c1Br [compound 429]	98	0	0	99	98	77	99	
COc1cc(F)c(-c2c(-c3ccc(I)cc3)c(OC)nn2C)c(F)c1 [compound 431]	0	0	9	9	0	9	98	
COc1nn(C)c(-c2ccc(F)cc2Cl)c1-c1ccc(I)cc1 [compound 432]	0	0	0	33	0	0	25	
Fc1cc(-n2c(Cl)nc(Cl)c2-c2cccc(Br)n2)ccc1Cl [compound 433]	0	0	0	50	0	0	92	
COc1ccc(-c2c(Cl)nc(Cl)n2-c2ccc(Cl)c(F)c2)cn1 [compound 434]	68	0	0	96	76	9	99	
COc1cncc(F)c1-c1c(Cl)nc(Cl)n1-c1ccc(Cl)c(F)c1 [compound 435]	68	0	0	99	0	24	99	
Fc1cc(-n2c(Cl)nc(Cl)c2-c2cnc3ccccc3c2)ccc1Cl [compound 436]	0	0	0	87	0	98	81	
COc1cc(Cl)c(-c2c(Cl)nc(Cl)n2-c2ccc(Cl)c(F)c2)c(Cl)c1 [compound 437]	98	60	0	99	98	80	100	
COc1cc(Cl)cc(Cl)c1-c1c(Cl)nc(Cl)n1-c1ccc(Cl)c(F)c1 [compound 438]	0	0	0	0	0	0		Test G disease control rating (Septoria tritici; [5]): 86* %
Fc1cc(-n2c(Br)nc(Br)c2-c2c(F)ccc(F)c2Cl)ccc1Cl [compound 459]								Test I disease control rating ([1]; 40 ppm (marked *)): 98* %; Test F disease control rating (Septoria nodorum; 40 ppm (marked *)): 0* %; Test H disease control rating ([2]; 40 ppm (marked *)): 9* %; Test C disease control rating (Botrytis cinerea; 40 ppm (marked *)): 99* %; Test J disease control rating ([3]; 40 ppm (marked *)): 98* %; Test D disease control rating (Alternaria solani; 40 ppm (marked *)): 63* %; Test G disease control rating (Septoria tritici; 40 ppm (marked *)): 95* %
Cc1ccc(-n2c(Br)nc(Br)c2-c2c(F)ccc(F)c2Cl)cc1 [compound 460]								Test I disease control rating ([1]; 40 ppm (marked *)): 93* %; Test F disease control rating (Septoria nodorum; 40 ppm (marked *)): 0* %; Test H disease control rating ([2]; 40 ppm (marked *)): 0* %; Test C disease control rating (Botrytis cinerea; 40 ppm (marked *)): 99* %; Test J disease control rating ([3]; 40 ppm (marked *)): 96* %; Test D disease control rating (Alternaria solani; 40 ppm (marked *)): 85* %; Test G disease control rating (Septoria tritici; 40 ppm (marked *)): 97* %
Cc1ccc(-n2c(Br)nc(Br)c2-c2c(F)ccc(F)c2F)cc1 [compound 461]								Test I disease control rating ([1]; 40 ppm (marked *)): 97* %; Test F disease control rating (Septoria nodorum; 40 ppm (marked *)): 0* %; Test H disease control rating ([2]; 40 ppm (marked *)): 0* %; Test C disease control rating (Botrytis cinerea; 40 ppm (marked *)): 99* %; Test J disease control rating ([3]; 40 ppm (marked *)): 98* %; Test D disease control rating (Alternaria solani; 40 ppm (marked *)): 99* %; Test G disease control rating (Septoria tritici; 40 ppm (marked *)): 94* %
Fc1ccc(-n2c(Br)nc(Br)c2-c2c(F)cc(F)cc2F)cc1 [compound 462]								Test I disease control rating ([1]; 40 ppm (marked *)): 78* %; Test F disease control rating (Septoria nodorum; 40 ppm (marked *)): 0* %; Test H disease control rating ([2]; 40 ppm (marked *)): 0* %; Test C disease control rating (Botrytis cinerea; 40 ppm (marked *)): 100* %; Test J disease control rating ([3]; 40 ppm (marked *)): 99* %; Test D disease control rating (Alternaria solani; 40 ppm (marked *)): 100* %; Test G disease control rating (Septoria tritici; 40 ppm (marked *)): 96* %
Fc1cc(-n2c(Cl)nc(Br)c2-c2c(F)ccc(F)c2Cl)ccc1Cl [compound 463]								Test I disease control rating ([1]; 40 ppm (marked *)): 100* %; Test F disease control rating (Septoria nodorum; 40 ppm (marked *)): 0* %; Test H disease control rating ([2]; 40 ppm (marked *)): 0* %; Test C disease control rating (Botrytis cinerea; 40 ppm (marked *)): 99* %; Test J disease control rating ([3]; 40 ppm (marked *)): 99* %; Test D disease control rating (Alternaria solani; 40 ppm (marked *)): 99* %; Test G disease control rating (Septoria tritici; 40 ppm (marked *)): 95* %
Cc1ccc(-n2c(Cl)nc(Br)c2-c2c(F)ccc(F)c2Cl)cc1 [compound 464]								Test I disease control rating ([1]; 40 ppm (marked *)): 99* %; Test F disease control rating (Septoria nodorum; 40 ppm (marked *)): 0* %; Test H disease control rating ([2]; 40 ppm (marked *)): 0* %; Test C disease control rating (Botrytis cinerea; 40 ppm (marked *)): 99* %; Test J disease control rating ([3]; 40 ppm (marked *)): 100* %; Test D disease control rating (Alternaria solani; 40 ppm (marked *)): 89* %; Test G disease control rating (Septoria tritici; 40 ppm (marked *)): 72* %
Cc1ccc(-n2c(Cl)nc(Br)c2-c2c(F)ccc(F)c2F)cc1 [compound 465]								Test I disease control rating ([1]; 40 ppm (marked *)): 99* %; Test F disease control rating (Septoria nodorum; 40 ppm (marked *)): 0* %; Test H disease control rating ([2]; 40 ppm (marked *)): 0* %; Test C disease control rating (Botrytis cinerea; 40 ppm (marked *)): 100* %; Test J disease control rating ([3]; 40 ppm (marked *)): 99* %; Test D disease control rating (Alternaria solani; 40 ppm (marked *)): 99* %; Test G disease control rating (Septoria tritici; 40 ppm (marked *)): 88* %

Source: US20110045101A1, “FUNGICIDAL SUBSTITUTED AZOLES” (E.I. Du Pont De Nemours and Company, priority 2009, published 2011)
